From patent publication US12303570B2, “Compositions and methods for assessing eye vasculature” (MediBeacon Inc., priority 2015, dated 2025)
Where a name gives a salt, the structure may show the parent alone.

Legend:
[1] = UV/vis absorption and fluorescence of pyrazine dyes; format: physicochemical
[2] = cited from earlier work
serum protein = settings: immediately upon intra-venous injection; cited from earlier work
[3] = 100 μM (Example 4 prints 100 μm)

Row | Compound | UV/vis λabs ([1]; 100 μM in PBS) [nm] | Fluorescence λem ([1]; 100 nM) [nm] | Fluorescence λex ([1]; 100 nM) [nm] | other results
1 | COCCN(CCOC)c1nc(C(=O)N[C@H](CC(=O)O)C(=O)O)c(N2CCOCC2)nc1C#N [Example 13, (R)-2-(6-(bis(2-methoxyethyl)amino)-5-cyano-3-morpholinopyrazine-2-carboxamido)succinic Acid] | 438 | – | – | Fluorescence λem ([1]; 100 μM): 570 nm; Fluorescence λex [1, 3]: 449 nm
2 | COCCN(CCOC)C(=O)c1nc(N(CCOC)CCOC)c(C(=O)N(CCOC)CCOC)nc1N(CCOC)CCOC [Example 6] | 434 | – | – | Fluorescence λem ([1]; concentration not given): 559 nm; Fluorescence λex ([1]; concentration not given): 449 nm
3 | COCCOCCOCCOCCOCCOCCOCCOCCOCCOCCOCCOCCC(=O)NCCNC(=O)c1nc(N)c(C(=O)NCCNC(=O)CCOCCOCCOCCOCCOCCOCCOCCOCCOCCOCCOCCOC)nc1N [Example 11, 3,6-diamino-N^2,N^5-bis(38-oxo-2,5,8,11,14,17,20,23,26,29,32,35-dodecaoxa-39-azahentetracontan-41-y) pyrazine-2,5-dicarboxamide] | 449 | 559 | 449 | –
4 | Nc1nc(C(=O)N[C@@H](CO)C(=O)O)c(N)nc1C(=O)N[C@@H](CO)C(=O)O [Example 3, 3,6-diamino-N^2,N^5-bis(L-serine)-pyrazine-2,5-dicarboxamide] | – | – | – | light absorption maximum [1]: 445 nm; light emission maximum [1]: 560 nm
5 | Nc1nc(C(=O)N[C@H](CC(=O)O)C(=O)O)c(N)nc1C(=O)N[C@H](CC(=O)O)C(=O)O [Example 8, 3,6-diamino-N^2,N^5-bis(D-aspartate)-pyrazine-2,5-dicarboxamide] | 433 | 558 | 449 | –
6 | COCCOCCOCCOCCC(=O)NCCNC(=O)c1nc(N)c(C(=O)NCCNC(=O)CCOCCOCCOCCOC)nc1N [Example 9, 3,6-diamino-N^2,N^5-bis(14-oxo-2,5,8,11-tetraoxa-15-azaheptadecan-17-yl) pyrazine-2,5-dicarboxamide] | 437 | 559 | 437 | –
7 | Nc1nc(C(=O)NCC(O)CO)c(N)nc1C(=O)NCC(O)CO (stereo not shown) [Example 5, 3,6-diamino-N^2,N^5-bis (2,3-dihydroxypropyl) pyrazine-2,5-dicarboxamide] | – | – | – | UV/vis λabs ([1]; 100 μM in H2O): 432 nm; Fluorescence λem ([1]; concentration not given): 558 nm; Fluorescence λex ([1]; concentration not given): 432 nm
8 | O=C1OC2(c3ccc(O)cc3Oc3cc(O[C@@H]4O[C@H](C(=O)O)[C@@H](O)[C@H](O)[C@H]4O)ccc32)c2ccccc21 (stereo partly shown) [fluorescein glucuronide] | – | – | – | fluorescent yield relative to fluorescein ([2]; metabolite versus parent): 5%
9 | Nc1nc(C(=O)N[C@H](CO)C(=O)O)c(N)nc1C(=O)N[C@H](CO)C(=O)O [Example 2, 3,6-diamino-N^2,N^5-bis(D-serine)-pyrazine-2,5-dicarboxamide] | 434 | – | – | light absorption maximum [1]: 445 nm; light emission maximum [1]: 560 nm; Fluorescence λem ([1]; concentration not given): 559 nm; Fluorescence λex ([1]; concentration not given): 449 nm
10 | COCCOCCOCCOCCOCCOCCOCCOCCC(=O)NCCNC(=O)c1nc(N)c(C(=O)NCCNC(=O)CCOCCOCCOCCOCCOCCOCCOCCOC)nc1N [Example 10, 3,6-diamino-N^2,N^5-bis(26-oxo-2,5,8,11,14,17,20,23-octaoxa-27-azanonacosan-29-yl)pyrazine-2,5-dicarboxamide] | 438 | 560 | 438 | –
11 | O=C1OC2(c3ccc(O)cc3Oc3cc(O)ccc32)c2ccccc21 [Sodium fluorescein] | – | – | – | converted to non-fluorescent serum protein bound molecule (serum protein): 93%; lipid solubility [2]: relatively high
12 | COCCN(CCOC)C(=O)c1nc(N)c(C(=O)N(CCOC)CCOC)nc1N [Example 4, 3,6-diamino-N^2,N^2,N^5,N^5-tetrakis(2-methoxyethyl) pyrazine-2,5-dicarboxamide] | 394 | – | – | Fluorescence λex [1, 3]: 394 nm; Fluorescence λem ([1]; 100 μm): 550 nm
13 | NCCNC(=O)c1nc(N)c(C(=O)NCCN)nc1N [Example 7, 3,6-diamino-N^2,N^5-bis(2-aminoethyl)pyrazine-2,5-dicarboxamide Bis TFA Salt] | 435 | 562 | 449 | –
